Paper PMC9951879, “Synthesis of New Shogaol Analogues as NRF2 Activators and Evaluation of Their Anti-Inflammatory Activity, Modes of Action and Metabolic Stability” (Antioxidants, 2023)
Read-outs that look alike come from different tables or passages of the source.

What was measured:
GSK-3β = target: T1, GSK-3β (Homo sapiens, UniProt P49841); experiment: GSK-3β kinase ADP-Glo assay; type: biochemical; conditions: ATP 25 μM, read-out: IC50, GSK-3β enzyme activity
T1 construct: purchased Promega
Experimental: The effect of STCs on GSK-3β activity was determined using GSK-3β kinase enzyme (Promega, WI, USA) and ADP-Glo^TM kinase assay (Promega, USA) following the manufacturer’s protocol and reported method. The STCs were dissolved in the kinase buffer to prepare different concentrations (10, 1, 0.1, 0.01, and 0.001 μM). One microliter of the test compounds was added to each well (384 well plate), followed by the addition of 2 μL of GSK-3β kinase (1 ng), 2 μL of the GSK-3β substrate (0.4 μg), and 2 μL of the ATP (25 μM), and incubated for 60 min. Then, 5 μL of ADP-Glo^TM reagent was added and incubated further for 40 min. Then 10 μL of kinase detection reagent was added and incubated for 30 min. The luminescence was recorded using a SpectraMax®L microplate reader (Molecular Devices, San Jose, CA, USA). The IC50 (concentration of the test compound required to produce half-maximal […]) from dose-response curves using non-linear regression analysis using GraphPad Prism (9.5.0; San Diego, CA, USA) software.

IL-1β = IL-1β ELISA in LPSEc-stimulated BV-2 cells; type: cell-based, mouse; conditions: LPSEc 200 ng/mL; for IL-1β level: 1 μM; for inhibition at 1 µM: Mus musculus, BV-2, 1 μM, read-out: percentage of IL-1β inhibition
Experimental: (§1) The anti-inflammatory activity of the STCs was determined in E. coli lipopolysaccharide (LPSEc; Sigma Aldrich, USA)-induced inflammation in NRF2-proficient and NRF2 siRNA-transfected mouse microglial (BV-2) cells. The NRF2 was silenced in BV-2 cells using NRF2 siRNA (Santa Cruz Biotechnology, Dallas, TX, USA) in Opti-MEM transfection medium (Thermo Fisher Scientific, USA) using Lipofectamine^TM LTX reagent with PLUS^TM reagent (Thermo Fisher Scientific, USA) following the manufacturer’s protocol and reported method. The cells (5 × 10^5 cells/well) were allowed to form a monolayer by incubating them for 24 h and then adding LPSEc (200 ng/mL) for 4 h. The STCs (1 µM) were then added and incubated for another 20 h. The nitric oxide (NO) level in cell supernatant was determined using the Griess reagent kit (Thermo Fisher Scientific, USA). The levels of proinflammatory cytokines (IL-1β, IL-6, IFN-γ, and TNF-α) in cell supernatant solutions were determined using commercially available ELISA kits (Abcam, Cambridge, UK). The cell pellets were lysed using Cell Lysis buffer (Thermo Fisher Scientific, Waltham, MA, USA) following the manufacturer’s instructions. The supernatant solution in the wells was replaced with PBS, and cells were detached by scraping, washed with PBS, and centrifuged to collect the cell pellet. The cell pellet was lysed on ice in a cell lysis buffer for half an hour, vortexing at regular intervals. The cell lysate was centrifuged at 15,000 rpm for 15 min at 4 °C. The clear lysate was stored at −80 °C until further use. The protein concentration was determined using Bradford’s assay kit (Thermo Fisher Scientific, USA) following the manufacturer’s instructions. The expression of COX-2, NF-κB p65, NRF2, and HO-1 in cell lysates was determined using commercially available ELISA kits (Abcam, St, Louis, Missouri, USA) following the manufacturer’s protocol. In addition, the thiol content was determined using a thiol quantification assay kit (Abcam, USA).

COX-2 = COX-2 ELISA in LPSEc-stimulated BV-2 cell lysates; type: cell-based, mouse; conditions: LPSEc 200 ng/mL; for COX-2 level: 1 μM; for inhibition at 1 µM: Mus musculus, BV-2, 1 μM, read-out: percentage of COX-2 inhibition
Experimental: as §1

[1] = Vybrant MTT cytotoxicity assay in Hepa-1c1c7 cells; type: cell-based; conditions: mouse, read-out: cell viability
Experimental: The safe dose of the test compounds on murine hepatoma (Hepa1c1c-7) and mouse microglial cells (BV-2) was assessed by determining their cytotoxicity using Vybrant® MTT Cell Proliferation Assay Kit (Thermo Fisher Scientific, USA) following the manufacturer’s protocol. In the case of BV-2 cells, the cytotoxicity of the test compounds was assessed together with E. coli lipopolysaccharide (LPSEc), 200 ng/mL. The cell density was 5 × 10^5 cells/well (in a 96-well plate), and they were preincubated for 24 h. The test compounds (10, 5, 2.5, 1.25, and 0.625 μM) were then added to each well (in triplicate) and incubated for another 24 h. The solution’s absorbance was measured using Spectramax (Molecular Devices, San Jose, California, USA) M3 microplate reader. The cell viability was calculated using the following formula, and the results are presented as mean ± SD. Percent cell viability %=Atreated cells−Ablank /Auntreated cells−Ablank×100%

HMOX1 = experiment: qPCR gene expression in Hepa1c1c-7 cells: HMOX1; type: cell-based, mouse; conditions: 1 μM, 48 h, Hepa-1c1c7 cells
Experimental: (§2) Hepa1c1c-7 cells were treated with STCs (1 μM) for 48 h, and the total RNA was isolated using QIAzol®lysis reagent (Qiagen, Germany). Next, cDNA was synthesised using the ReverTra Ace® qPCR RT Master Mix Kit (Toyobo Research Reagents, Osaka, Japan). Quantitative PCR was performed using THUNDERBIRD^TM Next SYBR® qPCR Mix (Toyobo Research Reagents, Osaka, Japan) in CFX96 Touch Real-Time PCR Detection System (Bio-Rad Laboratories, San Jose, CA, USA). The genes tested and the respective primers (purchased from Integrated DNA Technologies, Coralville, IA, USA) used in the study are shown in Table 1. β-actin was used as a reference gene for the normalisation of target gene expression. The 2^−ΔΔCt method was used to measure the relative expression of target genes.

GPX2 = experiment: qPCR gene expression in Hepa1c1c-7 cells: GPX2; type: cell-based, mouse; conditions: 1 μM, 48 h, Hepa-1c1c7 cells
Experimental: as §2

[2] = system: free thiol content in NRF2-proficient BV-2 cells; experiment: Thiol quantification assay in BV-2 cells; type: cell-based, mouse
Experimental: as §1, with “The STCs (1 µM) were then added and incubated for another 20 h.” left out, “The cell pellets were lysed using Cell Lysis buffer (Thermo Fisher Scientific, Waltham, MA, USA) following the manufacturer’s instructions. The supernatant solution in the wells was replaced with PBS, and cells were detached by scraping, washed with PBS, and centrifuged to collect the cell pellet. The cell pellet was lysed on ice in a cell lysis buffer for half an hour, vortexing at regular intervals. The cell lysate was centrifuged at 15,000 rpm for 15 min at 4 °C. The clear lysate was stored at −80 °C until further use.” left out

GCLM = experiment: qPCR gene expression in Hepa1c1c-7 cells: GCLM; type: cell-based, mouse; conditions: 1 μM, 48 h, Hepa-1c1c7 cells
Experimental: as §2

GSTA4 = experiment: qPCR gene expression in Hepa1c1c-7 cells: GSTA4; type: cell-based, mouse; conditions: 1 μM, 48 h, Hepa-1c1c7 cells
Experimental: as §2

GSTP1 = experiment: qPCR gene expression in Hepa1c1c-7 cells: GSTP1; type: cell-based, mouse; conditions: 1 μM, 48 h, Hepa-1c1c7 cells
Experimental: as §2

TXNRD1 = experiment: qPCR gene expression in Hepa1c1c-7 cells: TXNRD1; type: cell-based, mouse; conditions: 1 μM, 48 h, Hepa-1c1c7 cells
Experimental: as §2

NQO1 = experiment: qPCR gene expression in Hepa1c1c-7 cells: NQO1; type: cell-based, mouse; conditions: 1 μM, 48 h, Hepa-1c1c7 cells
Experimental: as §2

G6PDX = experiment: qPCR gene expression in Hepa1c1c-7 cells: G6PDX; type: cell-based, mouse; conditions: 1 μM, 48 h, Hepa-1c1c7 cells
Experimental: as §2

GCLC = experiment: qPCR gene expression in Hepa1c1c-7 cells: GCLC; type: cell-based, mouse; conditions: 1 μM, 48 h, Hepa-1c1c7 cells
Experimental: as §2

NRF2 = experiment: qPCR gene expression in Hepa1c1c-7 cells: NRF2; type: cell-based, mouse; conditions: 1 μM, 48 h, Hepa-1c1c7 cells
Experimental: as §2

T1 sequence (P49841 whole entry): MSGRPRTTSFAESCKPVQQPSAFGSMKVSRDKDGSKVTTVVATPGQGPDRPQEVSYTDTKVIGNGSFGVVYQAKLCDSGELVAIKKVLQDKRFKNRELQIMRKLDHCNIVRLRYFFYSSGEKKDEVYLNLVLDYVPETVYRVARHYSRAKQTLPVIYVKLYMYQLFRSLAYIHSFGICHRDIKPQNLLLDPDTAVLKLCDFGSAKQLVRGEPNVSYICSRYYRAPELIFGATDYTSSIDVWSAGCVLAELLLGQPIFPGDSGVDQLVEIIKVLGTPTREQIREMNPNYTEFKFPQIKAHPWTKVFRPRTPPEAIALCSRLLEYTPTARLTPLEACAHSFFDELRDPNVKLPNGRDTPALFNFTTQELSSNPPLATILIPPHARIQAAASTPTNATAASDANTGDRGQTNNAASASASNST

IC50 (GSK-3β)	Compound	IL-1β level (IL-1β; NRF2-proficient BV-2 cells)	IL-1β level (IL-1β; NRF2-silenced BV-2 cells)	COX-2 level (COX-2; NRF2-proficient BV-2 cells)	COX-2 level (COX-2; NRF2-silenced BV-2 cells)	HMOX1 gene expression foldchange (compared to control) (HMOX1)	GPX2 gene expression foldchange (compared to control) (GPX2)	GCLM gene expression foldchange (compared to control) (GCLM)	GSTA4 gene expression foldchange (compared to control) (GSTA4)	GSTP1 gene expression foldchange (compared to control) (GSTP1)	inhibition at 1 µM (IL-1β; NRF2-proficient BV-2 cells)	inhibition at 1 µM (IL-1β; NRF2-silenced BV-2 cells)	inhibition at 1 µM (COX-2; NRF2-proficient BV-2 cells)	inhibition at 1 µM (COX-2; NRF2-silenced BV-2 cells)	TXNRD1 gene expression foldchange (compared to control) (TXNRD1)	NQO1 gene expression foldchange (compared to control) (NQO1)	G6PDX gene expression foldchange (compared to control) (G6PDX)	GCLC gene expression foldchange (compared to control) (GCLC)	NRF2 gene expression foldchange (compared to control) (NRF2)	also measured
870 ± 90 nM	COc1cc(CCC(=O)/C=C/c2ccc([N+](=O)[O-])s2)ccc1O [STC8, (E)-5-(4-Hydroxy-3-methoxyphenyl)-1-(5-nitrothiophen-2-yl)pent-1-en-3-one]	39.93 ± 0.74 pg/mL	77.33 ± 0.93 pg/mL	4.10 ± 0.10 ng/mL	4.47 ± 0.15 ng/mL	–	–	–	–	–	–	–	–	–	–	–	–	–	–	viability at 24 h ([1]; Hepa-1c1c7 cells, 2.5, 5 and 10 μM): < 90%
420 ± 130 nM	CCCCC/C=C/C(=O)CCc1ccc(O)c(OC)c1 [6-shogaol, reference compound]	43.30 ± 0.62 pg/mL	88.57 ± 0.55 pg/mL	4.30 ± 0.10 ng/mL	6.03 ± 0.21 ng/mL	1.34 ± 0.05	1.63 ± 0.06	2.28 ± 0.10	1.53 ± 0.02	2.12 ± 0.09	53.7%	5%	35.5%	11.7%	1.20 ± 0.08	1.20 ± 0.06	2.27 ± 0.03	1.20 ± 0.05	1.26 ± 0.05	free thiol content ([2]; NRF2-proficient BV-2 cells, untreated cells = 100%): 35.03 ± 3.70%; viability at 24 h ([1]; Hepa-1c1c7 cells, 5 and 10 μM): < 90%
50 ± 1 nM	COc1cc(CCC(=O)/C=C/c2cc(-c3ccccc3)cs2)ccc1O [STC5, (E)-5-(4-Hydroxy-3-methoxyphenyl)-1-(4-phenylthiophen-2-yl)pent-1-en-3-one]	–	72.50 ± 1.32 pg/mL	–	3.48 ± 0.09 ng/mL	3.01 ± 0.10	3.25 ± 0.11	3.91 ± 0.09	2.52 ± 0.03	3.71 ± 0.09	71.4%	22.3%	76%	49.1%	2.52 ± 0.06	2.94 ± 0.01	3.83 ± 0.02	2.31 ± 0.05	3.21 ± 0.08	reactivity with thiols lower than that of 6-shogaol ([2]; versus 6-shogaol): about 70%
